Earlier results, collected in patent publication US5186913A, “Tungsten-188/carrier-free rhenium-188 perrhenic acid generator system” (Martin Marietta Energy Systems, Inc., priority 1991, dated 1993).
Where two headings read alike, the source gives them in different places.

Experiments:
[1] = not given; remark: listed apart in the source

SMILES: [188Re] [Re-188, Rhenium-188]
- energy of gamma photon (gamma emission): 155 keV
- abundance of gamma photon (gamma photon of 155 keV): about 15%
- half-life (radioactive decay): 0.704 days
- average energy of β emission (β emission): 764 keV

SMILES: [Re] [Re, Rhenium]
- distribution coefficient Dv (amount absorbed per liter resin bed/amount per liter solution) ([1]; 0.1M HNO3): 1×10^3
- distribution coefficient Dv (amount absorbed per liter resin bed/amount per liter solution) ([1]; 6M HNO3): ~ 1

SMILES: [188W] [W-188, tungsten-188]
- t1/2 (radioactive decay, parent isotope): 69.4 days
